Measurements from ChEMBL document CHEMBL3045134, “Synthesis, molecular modeling and anti-inflammatory screening of new 1,2,3-benzotriazinone derivatives” (Med Chem Res, 2012).

Legend:
Rattus norvegicus [1] = assay: Anti-inflammatory activity carrageenan-induced paw edema inRattus norvegicus albino (rat) assessed as paw thickness at 9 mg/kg, ip administered 1 hr prior to carrageenan-induced measured 2 hr post challenge; assay type: functional; settings: route intraperitoneal
Rattus norvegicus [2] = assay: Anti-inflammatory activity carrageenan-induced paw edema inRattus norvegicus albino (rat) assessed as paw thickness at 9 mg/kg, ip administered 1 hr prior to carrageenan-induced measured 3 hr post challenge; assay type: functional; settings: route intraperitoneal
Rattus norvegicus [3] = assay: Anti-inflammatory activity carrageenan-induced paw edema in Rattus norvegicus albino (rat) at 9 mg/kg, ip administered 1 hr prior to carrageenan-induced measured 1 to 4 hr post challenge relative to control; assay type: functional; settings: route intraperitoneal
Rattus norvegicus [4] = assay: Anti-inflammatory activity carrageenan-induced paw edema in Rattus norvegicus albino (rat) assessed as paw thickness at 9 mg/kg, ip administered 1 hr prior to carrageenan-induced measured 4 hr post challenge; assay type: functional; settings: route intraperitoneal
Rattus norvegicus [5] = assay: Ulcerogenicity in Rattus norvegicus albino (rat) at 0.9 mg/100 g/day, po qd for 3 successive days; assay type: toxicity, organism-based; settings: in vivo
Rattus norvegicus [6] = assay: Anti-inflammatory activity inRattus norvegicus albino (rat) assessed as reduction in carrageenan-induced paw edema at 10 mg/kg, ip administered 1 hr prior to carrageenan-induced measured 1 to 4 hr post challenge relative to indomethacin; assay type: functional; parameters: scale not given: the % may be the effect or the level left; settings: route intraperitoneal
Rattus norvegicus [7] = assay: Anti-inflammatory activity carrageenan-induced paw edema inRattus norvegicus albino (rat) assessed as paw thickness at 9 mg/kg, ip administered 1 hr prior to carrageenan-induced measured 1 hr post challenge; assay type: functional; settings: route intraperitoneal
Rattus norvegicus [8] = assay: Ulcerogenicity in Rattus norvegicus albino (rat) at 9 mg/kg/day, po qd for 3 successive days; assay type: toxicity, organism-based; parameters: route oral; settings: in vivo
Rattus norvegicus [9] = assay: Anti-inflammatory activity carrageenan-induced paw edema in Rattus norvegicus albino (rat) assessed as paw thickness at 10 mg/kg, ip administered 1 hr prior to carrageenan-induced measured 4 hr post challenge; assay type: functional; settings: route intraperitoneal
Rattus norvegicus [10] = assay: Anti-inflammatory activity carrageenan-induced paw edema in Rattus norvegicus albino (rat) assessed as paw thickness at 10 mg/kg, ip administered 1 hr prior to carrageenan-induced measured 1 hr post challenge; assay type: functional; settings: route intraperitoneal
Rattus norvegicus [11] = assay: Anti-inflammatory activity carrageenan-induced paw edema in Rattus norvegicus albino (rat) at 10 mg/kg, ip administered 1 hr prior to carrageenan-induced measured 1 to 4 hr post challenge relative to control; assay type: functional; settings: route intraperitoneal
Rattus norvegicus [12] = assay: Anti-inflammatory activity carrageenan-induced paw edema in Rattus norvegicus albino (rat) assessed as paw thickness at 10 mg/kg, ip administered 1 hr prior to carrageenan-induced measured 3 hr post challenge; assay type: functional; settings: route intraperitoneal
Rattus norvegicus [13] = assay: Anti-inflammatory activity carrageenan-induced paw edema in Rattus norvegicus albino (rat) assessed as paw thickness at 10 mg/kg, ip administered 1 hr prior to carrageenan-induced measured 2 hr post challenge; assay type: functional; settings: route intraperitoneal

**Q.** Which Activity (Rattus norvegicus [1]) does the source give for `O=c1c2ccccc2nnn1Cc1nnc(Nc2ccccc2)s1` here?
**A.** The Activity was 4.2 mm.

**Q.** And the Activity (Rattus norvegicus [2])?
**A.** The Activity was 4.62 mm.

**Q.** And the Activity (Rattus norvegicus [3])?
**A.** Its Activity is 70.7%.

**Q.** What about the Activity (Rattus norvegicus [4]) of the same compound?
**A.** Its Activity is 5.25 mm.

**Q.** And the UI (Rattus norvegicus [5])?
**A.** Its UI is 340.

**Q.** What about the Activity (Rattus norvegicus [6]) of the same compound?
**A.** Its Activity is 29.3016%.

**Q.** And the Activity (Rattus norvegicus [7])?
**A.** Its Activity is 3.75 mm.

**Q.** What does the source list for `O=C(Cn1nnc2ccccc2c1=O)N/N=c1/scc(-c2ccccc2)n1-c1ccccc1`?
**A.** Activity (Rattus norvegicus [1]): 4.75 mm; Activity (Rattus norvegicus [2]): 5 mm; Activity (Rattus norvegicus [3]): 54.06%; Activity (Rattus norvegicus [4]): 5.12 mm; UI (Rattus norvegicus [5]): 300; Activity (Rattus norvegicus [6]): 45.9377%; Activity (Rattus norvegicus [7]): 4 mm

**Q.** Which results are given for `O=c1c2ccccc2nnn1Cc1nnc(Nc2ccccc2)o1`?
**A.** Activity (Rattus norvegicus [1]): 4.2 mm; Activity (Rattus norvegicus [2]): 4.62 mm; Activity (Rattus norvegicus [3]): 70.7%; Activity (Rattus norvegicus [4]): 5.25 mm; UI (Rattus norvegicus [5]): 340; Activity (Rattus norvegicus [6]): 29.3016%; Activity (Rattus norvegicus [7]): 3.75 mm

**Q.** How did the Activity (Rattus norvegicus [1]) turn out when `Cc1ccc(-c2cc(C(F)(F)F)nn2-c2ccc(S(N)(=O)=O)cc2)cc1` [CELECOXIB] was run?
**A.** Its Activity is 3.37 mm.

**Q.** What about the Activity (Rattus norvegicus [2]) of the same compound?
**A.** The Activity was 3.75 mm.

**Q.** What about the Activity (Rattus norvegicus [3]) of the same compound?
**A.** Its Activity is 42.94%.

**Q.** What about the UI (Rattus norvegicus [8]) of the same compound?
**A.** The UI was 120.

**Q.** And the Activity (Rattus norvegicus [4])?
**A.** Its Activity is 3.87 mm.

**Q.** And the Activity (Rattus norvegicus [6])?
**A.** The Activity was 57.0556%.

**Q.** What about the Activity (Rattus norvegicus [7]) of the same compound?
**A.** Its Activity is 3.22 mm.

**Q.** How did the Activity (Rattus norvegicus [1]) turn out when `Cc1cc(-c2ccccc2)n(C(=O)Cn2nnc3ccccc3c2=O)n1` was run?
**A.** The Activity was 4.37 mm.

**Q.** What about the Activity (Rattus norvegicus [2]) of the same compound?
**A.** The Activity was 4.5 mm.

**Q.** And the Activity (Rattus norvegicus [3])?
**A.** The Activity was 45.8%.

**Q.** What about the Activity (Rattus norvegicus [4]) of the same compound?
**A.** Its Activity is 3.75 mm.

**Q.** What about the UI (Rattus norvegicus [5]) of the same compound?
**A.** The UI was 120.

**Q.** What about the Activity (Rattus norvegicus [6]) of the same compound?
**A.** The Activity was 54.2048%.

**Q.** And the Activity (Rattus norvegicus [7])?
**A.** The Activity was 3.25 mm.

**Q.** Which results are given for `O=C(Cn1nnc2ccccc2c1=O)Nc1ccccc1`?
**A.** Activity (Rattus norvegicus [1]): 4.25 mm; Activity (Rattus norvegicus [2]): 4.1 mm; Activity (Rattus norvegicus [3]): 58.22%; Activity (Rattus norvegicus [4]): 3.8 mm; UI (Rattus norvegicus [5]): 300; Activity (Rattus norvegicus [6]): 41.7838%; Activity (Rattus norvegicus [7]): 4.5 mm

**Q.** What does the source list for `Cc1ccc(C)n1NC(=O)Cn1nnc2ccccc2c1=O`?
**A.** Activity (Rattus norvegicus [1]): 4.75 mm; Activity (Rattus norvegicus [2]): 4.75 mm; Activity (Rattus norvegicus [3]): 65.95%; Activity (Rattus norvegicus [4]): 4.25 mm; UI (Rattus norvegicus [5]): 220; Activity (Rattus norvegicus [6]): 34.046%; Activity (Rattus norvegicus [7]): 3.75 mm

**Q.** How did the Activity (Rattus norvegicus [1]) turn out when `Cc1ccccc1NC(=O)Cn1nnc2ccccc2c1=O` was run?
**A.** The Activity was 4 mm.

**Q.** What about the Activity (Rattus norvegicus [2]) of the same compound?
**A.** Its Activity is 4 mm.

**Q.** And the Activity (Rattus norvegicus [3])?
**A.** The Activity was 66.08%.

**Q.** What about the Activity (Rattus norvegicus [4]) of the same compound?
**A.** Its Activity is 4.25 mm.

**Q.** What about the UI (Rattus norvegicus [5]) of the same compound?
**A.** The UI was 240.

**Q.** What about the Activity (Rattus norvegicus [6]) of the same compound?
**A.** The Activity was 33.9238%.

**Q.** And the Activity (Rattus norvegicus [7])?
**A.** The Activity was 4.4 mm.

**Q.** How did the Activity (Rattus norvegicus [1]) turn out when `COc1cccc(NC(=O)Cn2nnc3ccccc3c2=O)c1` was run?
**A.** The Activity was 3.12 mm.

**Q.** What about the Activity (Rattus norvegicus [2]) of the same compound?
**A.** Its Activity is 3.25 mm.

**Q.** What about the Activity (Rattus norvegicus [3]) of the same compound?
**A.** Its Activity is 61.27%.

**Q.** And the Activity (Rattus norvegicus [4])?
**A.** The Activity was 3.25 mm.

**Q.** And the UI (Rattus norvegicus [5])?
**A.** The UI was 240.

**Q.** What about the Activity (Rattus norvegicus [6]) of the same compound?
**A.** Its Activity is 38.7294%.

**Q.** What about the Activity (Rattus norvegicus [7]) of the same compound?
**A.** The Activity was 2.75 mm.

**Q.** For `Cc1ccc(NC(=O)Cn2nnc3ccccc3c2=O)cc1`, which Activity (Rattus norvegicus [1]) is on record?
**A.** Its Activity is 3.1 mm.

**Q.** And the Activity (Rattus norvegicus [2])?
**A.** The Activity was 4 mm.

**Q.** What about the Activity (Rattus norvegicus [3]) of the same compound?
**A.** Its Activity is 63.23%.

**Q.** And the Activity (Rattus norvegicus [4])?
**A.** Its Activity is 4.12 mm.

**Q.** And the UI (Rattus norvegicus [5])?
**A.** The UI was 140.

**Q.** What about the Activity (Rattus norvegicus [6]) of the same compound?
**A.** Its Activity is 36.7746%.

**Q.** And the Activity (Rattus norvegicus [7])?
**A.** The Activity was 2.62 mm.

**Q.** `CC(=O)c1ccc(NC(=O)Cn2nnc3ccccc3c2=O)cc1` was tested. Which Activity (Rattus norvegicus [1]) did it give?
**A.** The Activity was 3.87 mm.

**Q.** What about the Activity (Rattus norvegicus [2]) of the same compound?
**A.** Its Activity is 3.37 mm.

**Q.** What about the Activity (Rattus norvegicus [3]) of the same compound?
**A.** Its Activity is 52.25%.

**Q.** What about the Activity (Rattus norvegicus [4]) of the same compound?
**A.** Its Activity is 4.37 mm.

**Q.** What about the UI (Rattus norvegicus [5]) of the same compound?
**A.** The UI was 130.

**Q.** And the Activity (Rattus norvegicus [6])?
**A.** The Activity was 47.7499%.

**Q.** And the Activity (Rattus norvegicus [7])?
**A.** The Activity was 3.87 mm.

**Q.** Which Activity (Rattus norvegicus [1]) does the source give for `Cc1cc(C)n(C(=O)Cn2nnc3ccccc3c2=O)n1` here?
**A.** The Activity was 2.75 mm.

**Q.** And the Activity (Rattus norvegicus [2])?
**A.** The Activity was 3.5 mm.

**Q.** What about the Activity (Rattus norvegicus [3]) of the same compound?
**A.** Its Activity is 66.69%.

**Q.** And the Activity (Rattus norvegicus [4])?
**A.** Its Activity is 3.75 mm.

**Q.** And the UI (Rattus norvegicus [5])?
**A.** The UI was 140.

**Q.** What about the Activity (Rattus norvegicus [6]) of the same compound?
**A.** Its Activity is 33.313%.

**Q.** What about the Activity (Rattus norvegicus [7]) of the same compound?
**A.** The Activity was 2.12 mm.

**Q.** With `COc1ccc2c(c1)c(CC(=O)O)c(C)n2C(=O)c1ccc(Cl)cc1` [INDOMETHACIN] as the compound, how does the Activity (Rattus norvegicus [9]) read?
**A.** Its Activity is 3.75 mm.

**Q.** And the Activity (Rattus norvegicus [10])?
**A.** The Activity was 2.12 mm.

**Q.** And the Activity (Rattus norvegicus [11])?
**A.** Its Activity is 100%.

**Q.** What about the UI (Rattus norvegicus [8]) of the same compound?
**A.** Its UI is 450.

**Q.** And the Activity (Rattus norvegicus [12])?
**A.** Its Activity is 3.25 mm.

**Q.** And the Activity (Rattus norvegicus [13])?
**A.** The Activity was 2.25 mm.

**Q.** With `COc1ccccc1NC(=O)Cn1nnc2ccccc2c1=O` as the compound, how does the Activity (Rattus norvegicus [1]) read?
**A.** Its Activity is 5.25 mm.

**Q.** And the Activity (Rattus norvegicus [2])?
**A.** Its Activity is 4 mm.

**Q.** What about the Activity (Rattus norvegicus [3]) of the same compound?
**A.** Its Activity is 47.8314%.

**Q.** What about the Activity (Rattus norvegicus [4]) of the same compound?
**A.** The Activity was 4.25 mm.

**Q.** What about the UI (Rattus norvegicus [5]) of the same compound?
**A.** The UI was 210.

**Q.** And the Activity (Rattus norvegicus [6])?
**A.** Its Activity is 52.1686%.

**Q.** What about the Activity (Rattus norvegicus [7]) of the same compound?
**A.** The Activity was 3.8 mm.
